We go through 18 molecules from patent publication US10611760B2, “Therapeutic compounds as inhibitors of the orexin-1 receptor” (C4X Discovery Limited, priority 2014, dated 2020).

Counter-ions that a name gives are not always drawn. Some results are limits rather than exact numbers.

What all share (format): cell-based
Assay [1] addresses T1, hOX1R (Homo sapiens, UniProt O43613).
T1 sequence (O43613 1-425): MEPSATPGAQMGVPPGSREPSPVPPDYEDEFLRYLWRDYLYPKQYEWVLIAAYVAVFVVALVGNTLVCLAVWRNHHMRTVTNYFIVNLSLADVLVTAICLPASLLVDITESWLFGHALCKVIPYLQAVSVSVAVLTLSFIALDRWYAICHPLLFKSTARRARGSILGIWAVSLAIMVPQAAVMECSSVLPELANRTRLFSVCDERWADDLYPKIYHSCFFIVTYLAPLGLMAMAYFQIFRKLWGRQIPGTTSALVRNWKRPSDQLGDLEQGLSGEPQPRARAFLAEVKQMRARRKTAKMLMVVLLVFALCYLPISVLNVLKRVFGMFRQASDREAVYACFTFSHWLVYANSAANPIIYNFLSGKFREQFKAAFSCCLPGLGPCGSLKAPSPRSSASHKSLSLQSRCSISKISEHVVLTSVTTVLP
The assay can be described thus: Intracellular calcium measurements using division-arrested cells, OX1. The following applies: agonist orexin A at 2×EC50, * = single experiment, otherwise average of at least two, read-out: pIC50 OX1 (converted). As to the method:
(§1) Intracellular Calcium Measurements Using Division-arrested Cells (Table 1):
(§2) Test compounds are prepared as 10 mM stock solutions in DMSO, then serially diluted in half log concentrations with DMSO followed by dilution with assay buffer (HBSS (Sigma-Aldrich, H8264) containing 20 mM HEPES (Sigma-Aldrich, H4034), 0.1% (w/v) bovine serum albumin and adjusted to pH 7.4) to a top final assay concentration of 10 μM.
(§3) Human OX1 (CT-A474) and human OX2 (CT-A475) receptor-expressing division-arrested cells are plated into 384 well black, clear bottom, cell-bind plates at a seeding density of 10,000 cells/50 μL growth media. The seeded plates are incubated at 37° C. in air supplemented with 5% CO2 for 16 hrs.
(§4) The media is removed and replaced with 30 μL/well of cell loading buffer (a vial of Calcium 5 is solubilized in 22 mL of assay buffer to which a freshly prepared 250 mM solution of probenecid in 1:1 1M NaOH to assay buffer (200 μL) is added) and the cells incubated for 1 hr at 37° C. The serially diluted test compounds (10 μL/well) are added to the plate, which is then incubated for 10 mins and placed in a FlexStation III reader.
(In general: Calcium assays in cells follow changes in intracellular calcium, usually with a dye or a luminescent sensor.)

Assay [2] concerns the target T1, hOX1R. The assay can be described thus: Intracellular calcium measurements using stable-replicating cells, Method B (CHO cells, FLIPR Tetra), OX1. To be noted: orexin A at EC75, read-out: pIC50 OX1 (converted). As to the method:
(§5) Intracellular Calcium Measurements Using Stable-replicating Cells:
(§6) Human OX1 or human OX2 receptor expressing CHO cells are plated into 384 well black, clear bottom, CellBIND plates at a seeding density of 10,000 cells/75 μL growth media. The seeded plates are incubated at 37° C. in air supplemented with 5% CO2 overnight.
(§7) The next day media is removed and replaced with 30 μL/well of cell loading buffer (a vial of Calcium 5 is solubilized in 20 mL of assay buffer) and the cells incubated for 1 hr at 37° C. The serially diluted test compounds (10 μL/well) are added to the cell plate by the FLIPR Tetra and the addition is monitored for 5 mins by the instrument. The cell plate is then removed and incubated for additional 25 mins in a humidified incubator at […] prior to being placed back into the FLIPR Tetra. Finally 10 μL of orexin A in assay buffer +0.1% (w/v) bovine serum albumin is dispensed by the FLIPR Tetra at an EC75 concentration determined for each assay run. Fluorescence is measured at excitation and emission wavelengths of 485 nm and 525 nm respectively and data analyzed using GraphPad Prism for the EC75 value of orexin A and Aplus to determine an IC50 value for each test compound.

The target in assay [3] is T2, hOX2R (Homo sapiens, UniProt O43614).
T2 sequence (O43614 1-444): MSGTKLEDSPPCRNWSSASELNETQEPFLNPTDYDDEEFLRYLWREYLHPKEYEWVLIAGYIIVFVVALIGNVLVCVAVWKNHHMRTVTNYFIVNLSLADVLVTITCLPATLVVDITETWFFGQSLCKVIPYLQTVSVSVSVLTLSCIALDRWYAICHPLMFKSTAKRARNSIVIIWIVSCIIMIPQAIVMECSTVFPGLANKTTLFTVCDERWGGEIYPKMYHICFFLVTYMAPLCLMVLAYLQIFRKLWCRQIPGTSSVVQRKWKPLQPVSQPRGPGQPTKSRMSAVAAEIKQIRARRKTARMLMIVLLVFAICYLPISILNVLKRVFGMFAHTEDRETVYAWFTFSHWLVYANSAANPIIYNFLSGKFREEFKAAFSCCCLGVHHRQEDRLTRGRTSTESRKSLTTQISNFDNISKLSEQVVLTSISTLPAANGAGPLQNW
As to the kind of experiment: Intracellular calcium measurements using stable-replicating cells, Method B (CHO cells, FLIPR Tetra), OX2. The following applies: orexin A at EC75, read-out: pIC50 OX2 (converted). As for the experimental part:
as §5, §6, §7

The target of assay [4] is T2, hOX2R. As to the kind of experiment: Intracellular calcium measurements using division-arrested cells, OX2. The following applies: agonist orexin B at 2×EC50, * = single experiment, otherwise average of at least two, read-out: pIC50 OX2 (converted). As for the experimental part:
as §1, §2, §3, §4

Take `CC[C@@H](CNc1ccc(Cl)cn1)N(C)C(=O)c1cc(Br)ccc1-n1nccn1` [Example 19, (S)-5-bromo-N-(1-((5-chloropyridin-2-yl)amino)butan-2-yl)-N-methyl-2-(2H-1,2,3-triazol-2-yl)benzamide]: the IC50 is 25.1 nM at hOX1R [1], 1.58 nM on hOX1R [2], 501 nM at hOX2R [3] and 1580 nM at hOX2R [4].

For `CC[C@@H](CNc1ccc(Cl)cn1)N(C)C(=O)c1cc(OC(F)(F)F)ccc1-n1nccn1` [Example 20, (S)—N-(1-((5-chloropyridin-2-yl)amino)butan-2-yl)-N-methyl-2-(2H-1,2,3-triazol-2-yl)-5-(trifluoromethoxy)benzamide], the values for the IC50 on hOX1R [1], on hOX1R [2] and at hOX2R [3] were 200 nM, 100 nM and 3160 nM, respectively.

In the case of `CC[C@@H](CNc1cnc2ccccc2n1)N(C)C(=O)c1nc(C)ccc1-n1nccn1` [Example 65, (S)—N,6-dimethyl-N-(1-(quinoxalin-2-ylamino)butan-2-yl)-3-(2H-1,2,3-triazol-2-yl)picolinamide], the figures for the IC50 on hOX1R [2] and at hOX2R [3] were 2 nM and 794 nM, respectively.

For the molecule `Cc1ccc(-n2nccn2)c(C(=O)N(C)[C@H](CNc2ncc(C(F)(F)F)cn2)C(C)C)n1` [Example 66, (S)—N,6-dimethyl-N-(3-methyl-1-((5-(trifluoromethyl)pyrimidin-2-yl)amino)butan-2-yl)-3-(2H-1,2,3-triazol-2-yl)picolinamide], the IC50 at hOX1R [2] is 12.6 nM; on hOX2R [3] it was > 631 nM.

Turning to `Cc1ccc(-n2nccn2)c(C(=O)N(C)[C@H](CNc2ncc3ccccc3n2)C(C)C)n1` [Example 68, (S)—N,6-dimethyl-N-(3-methyl-1-(quinazolin-2-ylamino)butan-2-yl)-3-(2H-1,2,3-triazol-2-yl)picolinamide], the results for the IC50 at hOX1R [2] and at hOX2R [3] were 15.8 nM and > 1000 nM, respectively.

Take `Cc1ccc(-n2nccn2)c(C(=O)N(C)[C@H](CNc2ccc(C(F)(F)F)cn2)C(C)C)n1` [Example 69, (S)—N,6-dimethyl-N-(3-methyl-1-((5-(trifluoromethyl)pyridin-2-yl)amino)butan-2-yl)-3-(2H-1,2,3-triazol-2-yl)picolinamide]: the IC50 is 3.16 nM on hOX1R [2] and 3160 nM at hOX2R [3].

Regarding `CC[C@@H](CNc1ccc(C(F)(F)F)cn1)N(CC)C(=O)c1nc(C)ccc1-n1nccn1` [Example 71, (S)—N-ethyl-6-methyl-3-(2H-1,2,3-triazol-2-yl)-N-(1-((5-(trifluoromethyl)pyridin-2-yl)amino)butan-2-yl)picolinamide], the IC50 is 1 nM at hOX1R [2] and 316 nM on hOX2R [3].

As to `CC[C@@H](CNc1ncc(C(F)(F)F)cn1)N(CC)C(=O)c1nc(C)ccc1-n1nccn1` [Example 73, (S)—N-ethyl-6-methyl-3-(2H-1,2,3-triazol-2-yl)-N-(1-((5-(trifluoromethyl)pyrimidin-2-yl)amino)butan-2-yl)picolinamide], the IC50 on hOX2R [3] was > 1000 nM.

Turning to `Cc1ccc(-n2nccn2)c(C(=O)N(C)[C@H](CNc2ncc(C(F)(F)F)cn2)C2CC2)n1` [Example 74, (S)—N-(1-cyclopropyl-2-((5-(trifluoromethyl)pyrimidin-2-yl)amino)ethyl)-N,6-dimethyl-3-(2H-1,2,3-triazol-2-yl)picolinamide], the IC50 on hOX1R [2] is 2000 nM; at hOX2R [3], > 10000 nM.

For the molecule `CC[C@@H](CNc1ccc2ncccc2n1)N(C)C(=O)c1nc(C)ccc1-n1nccn1` [Example 76, (S)—N-(1-((1,5-naphthyridin-2-yl)amino)butan-2-yl)-N,6-dimethyl-3-(2H-1,2,3-triazol-2-yl)picolinamide], the IC50 was 25.1 nM at hOX1R [2] and > 2000 nM on hOX2R [3].

`CC[C@@H](CN(C)c1ncc(C(F)(F)F)cn1)N(C)C(=O)c1nc(C)ccc1-n1nccn1` [Example 82, (S)—N,6-dimethyl-N-(1-(methyl(5-(trifluoromethyl)pyrimidin-2-yl)amino)butan-2-yl)-3-(2H-1,2,3-triazol-2-yl)picolinamide]: the IC50 at hOX1R [2] was 7.94 nM; at hOX2R [3], > 10000 nM.

Take `CC[C@@H](CN(CCOC)c1ncc(C(F)(F)F)cn1)N(C)C(=O)c1nc(C)ccc1-n1nccn1` [Example 83, (S)—N-(1-((2-methoxyethyl)(5-(trifluoromethyl)pyrimidin-2-yl)amino)butan-2-yl)-N,6-dimethyl-3-(2H-1,2,3-triazol-2-yl)picolinamide]: the IC50 on hOX1R [2] is 12.6 nM; at hOX2R [3], > 1000 nM.

Take `CC[C@@H](CNc1ncc(C(F)(F)F)cn1)N(C)C(=O)c1nc(C)ccc1-c1ncccn1` [Example 84, (S)—N,6-dimethyl-3-(pyrimidin-2-yl)-N-(1-((5-(trifluoromethyl)pyrimidin-2-yl)amino)butan-2-yl)picolinamide formic acid salt]: the IC50 at hOX1R [2] is 2 nM.

In the case of `CC[C@@H](CNc1ccc(Cl)cn1)N(C)C(=O)c1cc(OC)c(C)cc1-n1nccn1` [Example 87, (S)—N-(1-((5-chloropyridin-2-yl)amino)butan-2-yl)-5-methoxy-N,4-dimethyl-2-(2H-1,2,3-triazol-2-yl)benzamide], at hOX1R [2], the IC50 is 3.98 nM.

For `CC[C@@H](CNc1ncc(C(F)(F)F)cn1)N(C)C(=O)c1nc(C)ccc1-n1cncn1` [Example 89, (S)—N,6-dimethyl-3-(1H-1,2,4-triazol-1-yl)-N-(1-((5-(trifluoromethyl)pyrimidin-2-yl)amino)butan-2-yl)picolinamide formic acid salt], the IC50 was 2000 nM on hOX1R [2] and > 10000 nM on hOX2R [3].

With `CC[C@@H](CNc1ncc(C(F)(F)F)cn1)N(C)C(=O)c1nc(C)ccc1-n1cccn1` [Example 90, (S)—N,6-dimethyl-3-(1H-pyrazol-1-yl)-N-(1-((5-(trifluoromethyl)pyrimidin-2-yl)amino)butan-2-yl)picolinamide formic acid salt], the IC50 is 2 nM on hOX1R [2] and > 1000 nM at hOX2R [3].

On to `CC[C@@H](CNc1ncc(C(F)(F)F)cn1)N(C)C(=O)c1c(F)cccc1-n1nccn1` [Example 91, (S)-2-fluoro-N-methyl-6-(2H-1,2,3-triazol-2-yl)-N-(1-((5-(trifluoromethyl)pyrimidin-2-yl)amino)butan-2-yl)benzamide], for which the values for the IC50 on hOX1R [2] and at hOX2R [3] were 25.1 nM and > 7940 nM, respectively.

Consider `CC[C@@H](CNc1ncc(C(F)(F)F)cn1)N(C)C(=O)c1nc(OC)ccc1-n1nccn1` [Example 92, (S)-6-methoxy-N-methyl-3-(2H-1,2,3-triazol-2-yl)-N-(1-((5-(trifluoromethyl)pyrimidin-2-yl)amino)butan-2-yl)picolinamide], for which the IC50 on hOX1R [2] was 31.6 nM.
